Results on 1 molecule are retold here after patent publication US20190314431A1, “Method of Discovery of Potential Bioactive Compounds in Herbals by Regrouping after Chromatography” (priority 2018, published 2019).

This assay deals with mice initiated with morphine. As to the kind of experiment: Anti-opioid addiction effectiveness test of grouped herbal compounds in mice. Type of assay: in vivo. The procedure:
Mice will be initiated with morphine at 1 mg/ml for 21 days.
The second test: use separate groups of compounds to test effectiveness in mice. The definition of effective.
1. Ten Mice in Each Group.

SMILES strings stand for the structures.

For the molecule `CN1CC[C@]23c4c5ccc(O)c4O[C@H]2[C@@H](O)C=C[C@H]3[C@H]1C5` [Morphine], the Effective entry reads like this: (3rd test, regrouped compounds of groups 2 and 9) “Yes”; (second test, ten mice in each group, mice initiated with morphine at 1 mg/ml for 21 days) “Yes”.
